Data published in patent US20210379010A1, “COMPOSITIONS COMPRISING CANNABINOIDS FOR USE IN THE TREATMENT OF BIOFILM AND CONDITIONS ASSOCIATED WITH MICROBIAL, FUNGAL, BACTERIAL INFECTIONS” (Yissum Research Development Company of The Hebrew …, priority 2018, published 2021).

How the values were obtained:
[1] = system: fluconazole resistant C. albicans strain DSY551 biofilm; conditions: Table 2
[2] = system: fluconazole resistant C. albicans strain DSY735 biofilm; conditions: Table 2
[3] = MBIC of fluconazole in combination with ARAS

With `OC(Cn1cncn1)(Cn1cncn1)c1ccc(F)cc1F` [FLU, fluconazole, reference compound] the “FBIC FLU” value [1, 3] was 2 µg/mL, the “MBIC FLU” value ([1]; fluconazole alone) was >64 µg/mL and the “FBIC FLU” value [2, 3] was 4 µg/mL. The “MBIC FLU” value ([2]; fluconazole alone) was >64 µg/mL.
